Source: US20050107293A1, “Protein modification and maintenance molecules” (priority 2001, published 2005)

Key:
liver C3A cells = test: Microarray analysis of SEQ ID NO:49 expression in steroid-treated C3A cells; type: cell-based, human; conditions: for differential expression of SEQ ID NO:49: liver C3A cells treated with one steroid, microarray
Source text: The human C3A cell line is a clonal derivative of HepG2/C3 and has been established as an in vitro model of the mature human liver (Mickelson et al. (1995) Hepatology 22:866-875; Nagendra et al. (1997) Am J Physiol 272:G408-G416). […] These experiments indicate that SEQ ID NO:49 is useful in diagnostic assays for liver diseases and as a potential biological marker and therapeutic agent in the treatment of liver diseases and disorders.

C3A cells = test: Microarray analysis of SEQ ID NO:59 expression in C3A cells treated with progesterone or budenoside; type: cell-based, human; conditions: early confluent C3A cells, 10 μM, at each time point (1, 3, and 6 hours), versus untreated C3A cells
Source text: The human C3A cell line is a clonal derivative of HepG2/C3 (hepatoma cell line, isolated from a person with liver tumor), which was selected for strong contact inhibition of growth. The use of a clonal population enhances the reproducibility of the cells. C3A cells have many characteristics of primary human hepatocytes in culture: i) expression of insulin receptor and insulin-like growth factor II receptor; ii) secretion of a high ratio of serum albumin compared with α-fetoprotein iii) conversion of ammonia to urea and glutamine; iv) metabolism of aromatic amino acids; and v) proliferation in glucose-free and insulin-free medium. The C3A cell line is now well established as an in vitro model of the mature human liver (Mickelson et al. (1995) Hepatology 22:866-875; Nagendra et al. (1997) Am J Physiol 272:G408-G416). Early Confluent C3A cells were treated with progesterone or budenoside at 1, 10, and 100 μM for 1, 3, and 6 hours. The treated cells were compared to untreated early confluent C3A cells. […] Therefore, SEQ ID NO:59 may be useful in monitoring of, and diagnostic assays for steroid hormone-induced responses.

[1] = greater than progesterone; cited from earlier work

Row | Molecule | differential expression of SEQ ID NO:49 (liver C3A cells) | expression of SEQ ID NO:59 (C3A cells) | decrease in expression of SEQ ID NO:5 (liver C3A cells; early confluent C3A cells treated for 1, 3, or 6 hours, at a minimum of two out of the three time points) | pharmacological activity relative to progesterone [1]
1 | CC(=O)[C@H]1CC[C@H]2[C@@H]3CCC4=CC(=O)CC[C@]4(C)[C@H]3CC[C@]12C [progesterone] | differential expression | decreased by at least two-fold |  | 
2 | C[C@H]1C[C@H]2[C@@H]3CCC4=CC(=O)C=C[C@]4(C)[C@@]3(Cl)[C@@H](O)C[C@]2(C)[C@@]1(O)C(=O)CO [beclomethasone] | differential expression |  | at least a two-fold decrease | 
3 | 6α-methyl-17-hydroxyprogesterone [Medroxyprogesterone] |  |  |  | about 15 times
